Laboratory results: patent publication US7005533B2, “Bisphosphonate derivatives, their preparations and uses” (Universite Paris 13, priority 2001, dated 2006)

Tests used:
[1] = Toxicity test in tumor-free immunosuppressed mice; assay type: in vivo; conditions: one injection per day for one week
Description: Tumor-free immunosuppressed mice were treated with BP1 and BP2 at doses ranging from 0.06 to 6 mg per injection and per animal. Mice received one injection per day for one week. Animals were weighed before, during and after treatment.

[2] = tested on: A 431 human carcinoma cells; experiment: MTT cell proliferation test, A 431 cells; assay type: cell-based; conditions: 2 mM
Description: (§1) The bisphosphonates BP1 and BP2 were tested in different cell lines: • FRCjun MRA, a murine fibrosarcoma cell line produced by transfection of FR3T3 cells by the oncogene jun-4, • A 431 human carcinoma cells. These cells harbor a VEGF (vascular endothelial growth factor) autocrine loop and, after implantation in immunosuppressed mice, induce rapid development of highly angiogenic tumors. • MDA MB 435 human breast tumor cells, • HUV-EC-C, transformed human umbilical cord endothelial cells (HUVEC), • BBC, bovine cerebral capillary endothelial cells.
(§2) Cell proliferation in the presence of different concentrations of BP1 or BP2 was measured by an MTT test after 24, 48 and 72 h of culture.

[3] = tested on: MDA MB 435 human breast tumor cells; experiment: MTT cell proliferation test, MDA MB 435 cells; assay type: cell-based; conditions: 2 mM, after 48 h of culture
Description: as §1, §2

[4] = Trypan blue exclusion test (cytotoxicity of BP1 and BP2); assay type: cell-based; conditions: even at concentrations above 5 mM
[5] = tested on: FRCjun MRA, a murine fibrosarcoma cell line; experiment: MTT cell proliferation test, FRCjun MRA cells; assay type: cell-based; conditions: Mus musculus; 2 mM, after 48 h of culture, FRCjunMRA cells
Description: as §1, §2

A 431 tumors [6] = experiment: Intratumoral angiogenesis of A 431 tumors (GSL 1 immunohistochemistry, image analysis); assay type: in vivo, mice; conditions: observed starting from the lowest doses (0.006 mg/injection)
Description: Animals were sacrificed and the tumors excised, then weighed, fixed, embedded in paraffin and sliced. Endothelial cells from tumor blood vessels laid down during tumor angiogenesis were visualized by immunohistochemical methods (GSL 1). Tumor angiogenesis was evaluated by image analysis with NIH image software.

A 431 tumors [7] = experiment: In vivo growth of subcutaneous A 431 tumors in immunosuppressed mice; conditions: for inhibition of the growth of A 431 tumors: 0.6 mg/injection/mouse, twice weekly s.c. near the tumor, after 5 weeks of treatment, P<0.05
Description: A 431 cells were injected subcutaneously into immunosuppressed mice. The mice developed tumors within one week. Tumor-bearing mice were assigned randomly to a control group or to treatment groups receiving different concentrations of BP1 and BP2.
Mice received twice weekly by subcutaneous injection near the tumor either 0.1 ml of PBS alone for the controls (n=6), or PBS containing either BP1 or BP2 at the following doses: 0.006 (n=6); 0.06 (n=6) or 0.6 mg/injection (n=6). Tumors were measured weekly and their volume V calculated by the formula: V=(4/3)πR1^2R2 wherein R1 is radius 1 and R2 radius 2, with R1<R2.

MCF7-ras tumors [8] = experiment: Pro-apoptotic effect in MCF7-ras tumors, M30 antibody staining; assay type: in vivo, mice
Source text: Further, the proapoptotic effect of phenylacetate bisphosphonate is confirmed by the technique of antibody staining. The staining of apoptotic cells is made by the M30 antibody which recognises the specific site of caspases on the cytokeratine 18 filaments produced by the epithelial cells. Such filaments rapidly aggregate in the cells in early apoptosis, by hyperphosphorylation of cytokeratines. By this cytoplasmic staining, granular structures are observed inside the cytoplasm, which corresponds to cells in late apoptosis.

MCF7 cells [9] = experiment: Apoptosis by Annexine V-FITC / propidium iodide, MCF7 cells; assay type: cell-based; conditions: 10 mM, after 4 hours of treatment
Description: (§3) In order to determine the nature of the toxicity of sodium phenylacetate bisphosphonate, MCF7 and MCF7-ras cells are cultivated, and then washed after 24 hours, and cultivated for 3 hours in DMEM medium with 10% of foetal calf serum. Phenylacetate bisphosphonate (10 mM) is added to one group but not to the other group. Apoptosis is determined by the test of Annexine V conjugated with FITC antibody. Propidium iodide is used in order to determine early apoptosis (positive staining for Annexine V and negative staining with propidium iodide) and late apoptosis (positive staining with Annexine V and with propidium iodide).

MCF7-ras cells [10] = experiment: Apoptosis by Annexine V-FITC / propidium iodide, MCF7-ras cells; assay type: cell-based; conditions: 10 mM, after 4 hours of treatment
Description: as §3

MCF7-ras tumors [11] = experiment: In vivo antitumor effect on MCF7-ras tumors in female athymic nude mice
Description: Inoculation of 4×10^6 MCF7-ras cells in female athymic nude mice is made sub-cutaneously in a 0.1 ml volume of DMEM, which induces 70% of tumors after three weeks.
Treatment with phenylacetate bisphosphonate begun when the mean volume of the tumors was 550 mm^3. The animals are divided in two groups, on receiving phenylacetate bisphosphonate, and the other no. Phenylacetate bisphosphonate is injected sub-cutaneously and peritumorally, twice a week, during 5 weeks, and the doses are 80 mg/kg (5 cases) and 160 mg/kg (6 cases).

MCF7-ras cells [12] = experiment: DNA degradation (agarose gel electrophoresis), MCF7-ras cells; assay type: cell-based; conditions: 10 mM, after 96 hours
Description: (§4) The cell apoptosis is confirmed by the method of DNA degradation. MCF7 and MCF7-ras cells are cultivated (5×10^5 cells in T25 flasks). After 24 hours, the cells are washed, and then cultivated in DMEM medium with 10% of foetal calf serum; phenylacetate bisphosphonate (10 mM) is added to one group, and no phenylacetate bisphosphonate is added to the other group.
(§5) After 96 hours, the cell extract containing the fragmented DNA is incubated with 0.5 mg/ml of RNase A at 37° C. for one hour, then with 0.5 mg/ml of proteinase K for one hour at 37° C. After incubation, the fragmented DNA is precipitated by isopropanol and then dissolved in 10 mM of Tris-HCl (pH 8) […], 5% of glycerol and 0.05% bromophenol blue. The fragmented DNA separated by electrophoresis on agarose gel at 1% is marked with ethidium bromide and photographed in UV.

MCF7-ras cells [13] = experiment: Reversibility of proliferation inhibition, tritiated thymidine incorporation; assay type: cell-based; conditions: 10 days treatment, thymidine after 15 days
Description: In order to check the reversibility of the effect of phenylacetate bisphosphonate, MCF7-ras cells have been treated with increasing concentrations of phenylacetate bisphosphonate for 10 days, the medium being changed every two days. The cells are divided in two groups. The DMEM medium supplemented with 10% of foetal calf serum is added to the first group, and the same medium with 10 mM of phenylacetate bisphosphonate is added to the second group, the medium being changed every two days. After 15 days, tritiated thymidine is added during 4 hours and the radioactivity of the suspension is determined by using a beta liquid scintigraphic counter (Beckman).

acute hepatitis = experiment: Liver histology (HES) in nude mice having an acute hepatitis; assay type: in vivo; conditions: 80 mg/kg or 160 mg/kg s.c., twice a week for five weeks
Description: The study is carried out on nude mice having an acute hepatitis. The mice are divided in two groups, one being treated with sodium phenylacetate bisphosphonate, whilst the second is not. Phenylacetate bisphosphonate is administered to the treated mice sub-cutaneously (80 mg/kg or 160 mg/kg), twice a week for five weeks. The mice are sacrificed and the liver is histologically analyzed after HES (method of Hematoxiline Eosine Staining).

MCF7 cells [14] = experiment: DNA degradation (agarose gel electrophoresis), MCF7 cells; assay type: cell-based; conditions: 10 mM, after 96 hours
Description: as §4, §5

MCF7-ras tumors [15] = experiment: Anti-angiogenic effect in MCF7-ras tumors, GSL1 lectin method; assay type: in vivo, mice
Description: The anti-angiogenic was verified by the GSL1 lectin method.
By using GSL1 lectin, angiogenesis is determined and identified by the red coloration staining of endothelial cells with anti-GSL1 antibody. It is noted that this angiogenesis is inhibited by the treatment of the tumors with phenylacetate bisphosphonate. This effect is partial but important (80%) at the 80 mg/kg dose. and complete at 160 mg/kg.

MCF7-ras cells [16] = experiment: MCF7-ras cell growth and viability (Trypan blue test); assay type: cell-based; conditions: for toxicity (cell viability, Trypan blue): 8 and 10 mM
Description: MCF7-ras cells are cultivated (20,000 cells/well), on a dish of 24 wells. After incubation for 24 hours, the medium (DMEM with 10% foetal calf serum) is replaced with the same medium to which are added various concentrations of phenylacetate bisphosphonate (2 mM, 4 mM, 6 mM, 8 mM and 10 mM). The cells are incubated for 1 to 4 days at 37° C. The cell viability is controlled by the Trypan blue test.

**Q.** For `COP(=O)(O)C(O)(Cc1ccccc1)P(=O)(O)OC` (centres unmarked) [BP2], which “signs of toxicity such as hair loss, diarrhea, infection or anemia” value ([1]; all doses tested (0.06–6 mg/injection)) is on record?
**A.** no signs of toxicity

**Q.** What about the inhibition at 2000 µM ([2]; after 48 h of culture) of the same molecule?
**A.** 30%

**Q.** And the inhibition at 2000 µM ([2]; after 72 h, P<0.05)?
**A.** 80%

**Q.** And the inhibition at 2000 µM [3]?
**A.** 60%

**Q.** What about the “cytotoxicity (trypan blue exclusion)” value [4] of the same molecule?
**A.** do not induce cytotoxicity

**Q.** And the inhibition at 2000 µM [5]?
**A.** 40%

**Q.** What about the “inhibition of intratumoral angiogenesis (endothelial cell area per unit of area)” value (A 431 tumors [6]) of the same molecule?
**A.** significant decrease in endothelial cell area per unit of area

**Q.** And the “inhibition of the growth of A 431 tumors” value (A 431 tumors [7])?
**A.** 56%

**Q.** And the “comparative in vivo efficacy” value (A 431 tumors [7]; A 431 tumors in mice)?
**A.** greater efficacy than BP1

**Q.** For `O=P(O)(O)C(O)(Cc1ccccc1)P(=O)(O)O` [phenylacetate bisphosphonate], which “state of tumor cells (M30 / cytokeratine 18 staining)” value (MCF7-ras tumors [8]; 80 mg/kg dose) is on record?
**A.** apoptosis

**Q.** And the “state of tumor cells (M30 / cytokeratine 18 staining)” value (MCF7-ras tumors [8]; 160 mg/kg dose)?
**A.** aponecrosis

**Q.** And the “percentage of cells in late apoptosis” value (MCF7 cells [9]; MCF7 cells)?
**A.** 22%

**Q.** And the “percentage of cells in early apoptosis” value (MCF7 cells [9]; MCF7 compared with MCF7-ras)?
**A.** almost identical in the two cell types

**Q.** And the “percentage of cells in late apoptosis” value (MCF7-ras cells [10]; MCF7-ras cells)?
**A.** 53%

**Q.** What about the “percentage of cells in early apoptosis” value (MCF7-ras cells [10]; MCF7-ras compared with MCF7) of the same molecule?
**A.** almost identical in the two cell types

**Q.** What about the “tumor growth when the treatment is stopped” value (MCF7-ras tumors [11]; 80 mg/kg dose) of the same molecule?
**A.** tumor growth relapsed is observed

**Q.** What about the “tumor growth when the treatment is stopped” value (MCF7-ras tumors [11]; 160 mg/kg dose) of the same molecule?
**A.** blocked for at least three weeks

**Q.** What about the “inhibition of the growth of the tumors” value (MCF7-ras tumors [11]; 80 and 160 mg/kg s.c. peritumorally, twice a week, 5 weeks, at the end of the treatment) of the same molecule?
**A.** irreversible and dose dependent

**Q.** And the “toxic effect in vivo” value (MCF7-ras tumors [11]; even when the treatment is applied during a long period of time)?
**A.** without any toxic affect

**Q.** And the “proliferation of MCF7-ras cells and growth of mammary tumors in vivo” value (MCF7-ras tumors [11]; first five or six weeks of treatment)?
**A.** irreversibly blocks

**Q.** And the “immunohistologic analysis of the tumors: what the decrease in tumor growth is related to” value (MCF7-ras tumors [11]; treated MCF7-ras tumors)?
**A.** induction of apoptosis, to a sharp decrease of angiogenesis of the tumor and induction of fibrose in the tumor

**Q.** What about the “degradation of DNA” value (MCF7-ras cells [12]) of the same molecule?
**A.** dramatic degradation of DNA

**Q.** What about the “reversibility of the inhibition of cell proliferation” value (MCF7-ras cells [13]; dose above 4 mM) of the same molecule?
**A.** irreversible

**Q.** And the “reversibility of the inhibition of cell proliferation” value (MCF7-ras cells [13]; dose of 2 mM)?
**A.** partially reversible

**Q.** What about the “hepatic toxicity noted in treated mice” value (acute hepatitis) of the same molecule?
**A.** 4 cases out of 5

**Q.** And the “degradation of DNA” value (MCF7 cells [14])?
**A.** dramatic degradation of DNA

**Q.** What about the “inhibition of tumor angiogenesis” value (MCF7-ras tumors [15]; 80 mg/kg dose) of the same molecule?
**A.** 80%

**Q.** What about the “inhibition of tumor angiogenesis” value (MCF7-ras tumors [15]; 160 mg/kg) of the same molecule?
**A.** complete

**Q.** What about the “toxicity (cell viability, Trypan blue)” value (MCF7-ras cells [16]; by the fourth day of culture) of the same molecule?
**A.** 50–60%

**Q.** What about the “toxicity (cell viability, Trypan blue)” value (MCF7-ras cells [16]; three first days of culture) of the same molecule?
**A.** 10%

**Q.** And the “effect on cell growth” value (MCF7-ras cells [16]; concentrations lower than 6 mM, three first days of culture)?
**A.** cytostatic

**Q.** For `O=P(O)(O)C(O)(Cc1ccccc1)P(=O)(O)O` [BP1, reference compound], which “signs of toxicity such as hair loss, diarrhea, infection or anemia” value ([1]; doses less than 6 mg/injection) is on record?
**A.** no signs of toxicity

**Q.** What about the “cytotoxicity (trypan blue exclusion)” value [4] of the same molecule?
**A.** do not induce cytotoxicity

**Q.** And the “inhibition of intratumoral angiogenesis (endothelial cell area per unit of area)” value (A 431 tumors [6])?
**A.** significant decrease in endothelial cell area per unit of area

**Q.** And the “inhibition of the growth of A 431 tumors” value (A 431 tumors [7])?
**A.** 40%
